# In patent US8894993B2, “Mitochondria-targeted antioxidants” (Natreon Inc., priority 2006, dated 2014):
# How the values were obtained:
# [1] = DBP products in mice liver mitochondria before and after DBPs treatment, HPTLC; format: in vivo, Swiss Albino mice; details: one hour after i.p. 4:1 mixture of 3,8-(OH)2-DBP and 3-OH-DBP 20 mg/Kg
# Experimental: Mitochondria were isolated from heart and liver of chicken, goat and mice following a published procedure (Liu Y, Deng F, Zhao R and Qu S, Chemosphere, 40(8):851-854, 2000). […] The tissue was cut into small pieces, homogenized and centrifuged at 900 g for one minute. The supernatant was again centrifuged twice, for 20 minutes each time at 900 g. The sediment at each step was discarded. The clear supernatant was centrifuged twice at 12,000 g, 20 minutes each time, to form pellets of a mitochondria-enriched fraction. The fraction was divided into two parts. One part was resuspended in a measured volume of distilled water and sonicated (10 min×2). […] The two extracts were subjected to comprehensive HPTLC and HPLC analyses for detection and quantitation of DBPs and their equivalents. […] One hour after administration the animals were sacrificed and mitochondria from liver were isolated and analyzed as described for Example 6. […] Mobile Phase—Chloroform:Methanol 90:10 Sample application—CAMAG LINOMAT 5 (Automated applicator) Detection—240 nm (CAMAG TLC SCANNER 3) 3-OH-DBP and 3,8-(OH)2-DBP (and their conjugates) were detected in mitochondria of control mice by HPTLC. Administration of DBPs to the animals increased the amount of DBPs and its products in mitochondria as detected by using authentic markers of the two DBPs (Table 2).
# [2] = Stability of reduced CoQ10 (CoQH2) by 3,8-(OH)2-DBP at different pH, HPLC; format: physicochemical
# Experimental: Two mg of solid CoQ10 (SRL, India), in an airtight vial was dissolved in 1 ml of methanol. After thorough vortexing, 5 mg of solid NaBH4 (Merck India) was added, 1 mg at a time, to the yellow colored solution of CoQ10 in methanol and kept in an ice-bath for a few minutes. The vial was kept shut to avoid contact with air but opened occasionally to avoid generation of pressure inside due to accumulation of hydrogen. After the reduction reaction, a clear colorless solution was obtained to which methanolic solution of 3,8-(OH)2-DBP with a concentration of 1 mg/ml (>90% pure) was added in a ratio of 1:1 to obtain a final concentration of the mixture—reduced CoQ10 […] DBP 0.5 mg/ml. This solution was analyzed by HPLC for reduced CoQ10 content at different time intervals. A control was prepared in similar fashion except that no DBP was added. The pH of the solutions was determined to be 8 using pH paper. To obtain solutions of reduced CoQ10 with pH 7 and pH 3, aliquots of concentrated HCl were added to the methanolic solution of reduced CoQ10 at pH 8. Afterwards, a solution of DBP was added and analysis by HPLC at different time intervals was conducted, as before.
# Mobile phase—Methanol:Acetonitrile:Ethanol 30:30:40
# Detection—PDA 290 nm for reduced CoQ10
# [3] = tested on: stress-induced lipid peroxidation of mouse liver mitochondria; assay: Stress-induced lipid peroxidation of mouse liver mitochondria (thiobarbituric acid reaction); format: in vivo, Swiss albino mice; details: oral each 5 mg/Kg b.w. per day for 5 days, hypoxic stress, control 0.495
# Experimental: Swiss albino mice (20±g) were fed orally with—(a) 3,8-(OH)2-DBP; (b) CoQ10; (c) a combination of 3,8-(OH)2-DBP and CoQ10 and (d) 3,8-(OH)2-DBP and CoQ10 in a clathrated form with fusoms (each 5 mg/Kg b.w.), per day, for 5 days. The animals were subjected to hypoxic stress for 1 hour each day for 3 days from the 3rd day of the experiment. After the stipulated time-period, brain and liver of the animals were collected and mitochondria from the liver were separated as described previously (Liu Y, Deng F, Zhao R and Qu S, Chemosphere, 40(8):851-854, 2000). Lipid peroxidation in brain and liver-mitochondria was estimated by the method of Ohkawa et al. (Ohkawa H, Ohishi N and Yagi K, Assay for lipid peroxides in animal tissues by thiobarbituric acid reaction. Anal. Biochem., 95:351-358, 1979).
# [4] = tested on: Blood levels of ATP and energy related indices; assay: Blood ATP and energy related indices in mice after forced swimming stress; format: in vivo, Swiss albino mice
# Experimental: Swiss albino mice (20±2 g) were fed orally with—(a) 3,8-(OH)2-DBP and (b) 3-OH-DBP (each 25 mg/Kg b.w.), per day, for 7 days. In case of the controls, only vehicle (0.8% carboxymethyl cellulose in water) was administered for seven days of the experiment. The animals were subjected to ‘forced swimming’ for 30 minutes on the 7th day of the experiment [Pliakas, A. M., Carlson, R. R., Neve, R. L., Konradi, C., Nestler, E. J. and Carlezon, W. A. 2001. J. Neurosci., 21(18), 7397-7403]. Immediately after the swimming, blood was collected from all the animals for analysis of ATP and related nucleotides by HPLC [Smolenska, Z., Kaznowska, Z., Zarowny, D., Simmonds, H. A. and Smolenski, R. T. 1999. Rheumatology, 38, 997-1002; Komarova, S. V., Mosharov, E. V., Vitvitsky, V. M. and Ataullakhanov, F. I. 1999. Blood Cell Mol. Dis., 25(13), 170-179; Marquardt, D. L., Gruber, H. E. and Wasserman, S. I. 1984. Proc. Natl. Acad. Sci., 81, 6192-6196]. AEC (adenylate energy charge) was calculated according to the method of Atkinson and Walton [Atkinson D E & Walton G M, Adenosine triphosphate conservation in metabolic regulation, J Biol Chem, 242 (1967) 3239] and TAN (total adenine nucleotides) was calculated according to an established method [Spencer M K & Katz A, Role of glycogen in control of glycolysis and IMP formation in human muscle during exercise, Am J Physiol, 260 (1991) E859].
smiles,measurement,setting,value
"O=c1oc2cc(O)ccc2c2ccc(O)cc12 [3,8-(OH)2-DBP, 3,8-dihydroxydibenzo-α-pyrone]",Amount in mitochondria after DBP treatment,[1],2.3 nmol/gm wet wt
same,"Regenerated CoQ10 in presence of 3,8-(OH)2-DBP","[2]; autoxidation of CoQH2, pH 8, 0 min",0 µg/mL
same,"Regenerated CoQ10 in presence of 3,8-(OH)2-DBP","[2]; autoxidation of CoQH2, pH 8, 20 min",10.63 µg/mL
same,"Regenerated CoQ10 in presence of 3,8-(OH)2-DBP","[2]; autoxidation of CoQH2, pH 8, 40 min",37.37 µg/mL
same,"Regenerated CoQ10 in presence of 3,8-(OH)2-DBP","[2]; autoxidation of CoQH2, pH 8, 60 min",99.55 µg/mL
same,Reduced CoQ10 remaining in presence of DBP,"[2]; pH 3, 0 hour",100.00%
same,Reduced CoQ10 remaining in presence of DBP,"[2]; pH 3, 48 hour",79.27%
same,Reduced CoQ10 remaining in presence of DBP,"[2]; pH 3, 72 hour",73.91%
same,Reduced CoQ10 remaining in presence of DBP,"[2]; pH 7, 0 hour",100.00%
same,Reduced CoQ10 remaining in presence of DBP,"[2]; pH 7, 48 hour",10.79%
same,Reduced CoQ10 remaining in presence of DBP,"[2]; pH 7, 72 hour",6.33%
same,Reduced CoQ10 remaining in presence of DBP,"[2]; pH 8, 0 min, DBP 0.5 mg/ml",100.00%
same,Reduced CoQ10 remaining in presence of DBP,"[2]; pH 8, 40 min, DBP 0.5 mg/ml",93.44%
same,Reduced CoQ10 remaining in presence of DBP,"[2]; pH 8, 60 min, DBP 0.5 mg/ml",80.21%
same,Reduced CoQ10 remaining in presence of DBP,"[2]; pH 8, 80 min, DBP 0.5 mg/ml",66.57%
same,Reduced CoQ10 remaining in presence of DBP,"[2]; pH 8, 100 min, DBP 0.5 mg/ml",51.85%
same,"protection of reduced CoQ10 from oxidative degradation, in words",[2]; pH range 3 to 8,significantly protects
same,OD Values at 532 nm (lipid peroxidation),[3],0.395
same,"content of ATP, AEC values and ATP/ADP ratio (in blood), in words",[4]; albino mice engaged in forced swimming,significant improvement only in some parameters
same,ATP,"[4]; blood, forced swimming, 25 mg/Kg p.o. 7 days, mean ± SEM of 6, control 0.60 ± 0.01",0.68 ± 0.03 µM
same,TAN,"[4]; blood, forced swimming, 25 mg/Kg p.o. 7 days, mean ± SEM of 6, control 0.79 ± 0.01",0.86 ± 0.03 µM
same,AEC,"[4]; blood, forced swimming, 25 mg/Kg p.o. 7 days, mean ± SEM of 6, control 0.86 ± 0.003",0.88 ± 0.003
same,ATP/ADP ratio,"[4]; blood, forced swimming, 25 mg/Kg p.o. 7 days, mean ± SEM of 6, control 3.84 ± 0.09",4.30 ± 0.12
